According to patent US20240174618A1, “SUBSTITUTED (2-HETEROARYLOXYPHENYL)SULFONATES, SALTS THEREOF AND THEIR USE AS HERBICIDAL AGENTS” (Bayer Aktiengesellschaft, priority 2021, published 2024):

Columns and labels:
Format in all cases: in vivo
[1] = tested on: Oryza sativa (ORYSA); test: D. Pre-emergence effect on useful plants, ORYSA; settings: useful plant, application rate 80 g/ha
Source text: (§1) Seeds of monocotyledonous and dicotyledonous weed plants and crop plants were placed in plastic or organic planting pots and covered with soil. The compounds of the invention, formulated in the form of wettable powders (WP) or as emulsion concentrates (EC), were then applied to the surface of the covering soil as aqueous suspension or emulsion with addition of 0.5% additive at a water application rate equivalent to 600 l/ha (converted). After the treatment, the pots were placed in a greenhouse and kept under good growth conditions for the test plants. After about 3 weeks, the efficacy of the preparations was scored visually in comparison with untreated controls as percentages. For example, • 100% efficacy=plants have died, • 0% efficacy=like untreated control plants.
(§2) Tables D1a to D5b below show the effects of selected compounds of the general formula (I) according to table 1 on various useful plants at an application rate corresponding to 320 g/ha or less, which were obtained by the experimental procedure mentioned above.

[2] = tested on: Polygonum convolvulus (POLCO); test: C. Herbicidal pre-emergence efficacy, POLCO; settings: scored after about 3 weeks
Source text: as §1
(§3) Tables C1a to C14b below show the effects of selected compounds of the general formula (I) according to table 1 on various harmful plants at an application rate corresponding to 320 g/ha or less, which were obtained by the experimental procedure mentioned above.

[3] = tested on: Echinochloa crus-galli (ECHCG); test: E. Herbicidal post-emergence efficacy, ECHCG
Experimental: (§4) Seeds of monocotyledonous and dicotyledonous weeds and crop plants were placed in sandy loam in plastic or organic planting pots, covered with soil and cultivated in a greenhouse under controlled growth conditions. 2 to 3 weeks after sowing, the test plants were treated at the one-leaf stage. The compounds of the invention, formulated in the form of wettable powders (WP) or as emulsion concentrates (EC), were then sprayed onto the green parts of the plants as aqueous suspension or emulsion with addition of 0.5% additive at a water application rate of 600 l/ha (converted). After the test plants had been kept in the greenhouse under optimum growth conditions for about 3 weeks, the activity of the preparations was rated visually in comparison to untreated controls.
(§5) For example, • 100% efficacy=plants have died, • 0% action=like untreated control plants.
(§6) Tables E1a to E12b below show the effects of selected compounds of the general formula (I) according to table 1 on various harmful plants at an application rate corresponding to 320 g/ha or less, which were obtained by the experimental procedure mentioned above.

[4] = tested on: Setaria viridis (SETVI); test: E. Herbicidal post-emergence efficacy, SETVI; settings: application rate 320 g/ha
Experimental: as §4, §5, §6

[5] = tested on: Abutilon theophrasti (ABUTH); test: E. Herbicidal post-emergence efficacy, ABUTH
Experimental: as §4, §5, §6

[6] = tested on: Alopecurus myosuroides (ALOMY); test: E. Herbicidal post-emergence efficacy, ALOMY; settings: application rate 320 g/ha
Experimental: as §4, §5, §6

[7] = tested on: Triticum aestivum (TRZAS); test: F. Post-emergence effect on useful plants, TRZAS; settings: useful plant, application rate 80 g/ha
Experimental: as §4, §5
(§7) Tables F1a to F4 below show the effects of selected compounds of the general formula (I) according to table 1 on various useful plants at an application rate corresponding to 320 g/ha or less, which were obtained by the experimental procedure mentioned above.

[8] = tested on: Matricaria inodora (MATIN); test: C. Herbicidal pre-emergence efficacy, MATIN; settings: 320 g/ha, scored after about 3 weeks
Source text: as §1, §3

[9] = tested on: Polygonum convolvulus (POLCO); test: E. Herbicidal post-emergence efficacy, POLCO; settings: application rate 320 g/ha
Experimental: as §4, §5, §6

[10] = tested on: Viola tricolor (VIOTR); test: E. Herbicidal post-emergence efficacy, VIOTR
Experimental: as §4, §5, §6

[11] = tested on: Amaranthus retroflexus (AMARE); test: C. Herbicidal pre-emergence efficacy, AMARE; settings: scored after about 3 weeks
Source text: as §1, §3

[12] = tested on: Lolium rigidum (LOLRI); test: C. Herbicidal pre-emergence efficacy, LOLRI; settings: 320 g/ha, scored after about 3 weeks
Source text: as §1, §3

[13] = tested on: Abutilon theophrasti (ABUTH); test: C. Herbicidal pre-emergence efficacy, ABUTH; settings: scored after about 3 weeks
Source text: as §1, §3

[14] = tested on: Zea mays (ZEAMX); test: F. Post-emergence effect on useful plants, ZEAMX; settings: useful plant, application rate 80 g/ha
Experimental: as §4, §5, §7

[15] = tested on: Setaria viridis (SETVI); test: C. Herbicidal pre-emergence efficacy, SETVI; settings: scored after about 3 weeks
Source text: as §1, §3

[16] = tested on: Echinochloa crus-galli (ECHCG); test: C. Herbicidal pre-emergence efficacy, ECHCG; settings: scored after about 3 weeks
Source text: as §1, §3

[17] = tested on: Amaranthus retroflexus (AMARE); test: E. Herbicidal post-emergence efficacy, AMARE
Experimental: as §4, §5, §6

[18] = tested on: Veronica persica (VERPE); test: E. Herbicidal post-emergence efficacy, VERPE
Experimental: as §4, §5, §6

[19] = tested on: Veronica persica (VERPE); test: C. Herbicidal pre-emergence efficacy, VERPE; settings: scored after about 3 weeks
Source text: as §1, §3

[20] = tested on: Avena fatua (AVEFA); test: C. Herbicidal pre-emergence efficacy, AVEFA; settings: 320 g/ha, scored after about 3 weeks
Source text: as §1, §3

[21] = tested on: Alopecurus myosuroides (ALOMY); test: C. Herbicidal pre-emergence efficacy, ALOMY; settings: 320 g/ha, scored after about 3 weeks
Source text: as §1, §3

[22] = tested on: Lolium rigidum (LOLRI); test: E. Herbicidal post-emergence efficacy, LOLRI; settings: application rate 320 g/ha
Experimental: as §4, §5, §6

[23] = tested on: Viola tricolor (VIOTR); test: C. Herbicidal pre-emergence efficacy, VIOTR
Source text: as §1, §3

[24] = tested on: Glycine max (GLXMA); test: D. Pre-emergence effect on useful plants, GLXMA; settings: useful plant
Source text: as §1, §2

[25] = tested on: Digitaria sanguinalis (DIGSA); test: C. Herbicidal pre-emergence efficacy, DIGSA; settings: 320 g/ha, scored after about 3 weeks
Source text: as §1, §3

[26] = tested on: Kochia scoparia (KCHSC); test: C. Herbicidal pre-emergence efficacy, KCHSC; settings: application rate 320 g/ha
Source text: as §1, §3

[27] = tested on: Pharbitis purpurea (PHBPU); test: E. Herbicidal post-emergence efficacy, PHBPU; settings: application rate 320 g/ha
Experimental: as §4, §5, §6

[28] = tested on: Zea mays (ZEAMX); test: D. Pre-emergence effect on useful plants, ZEAMX; settings: useful plant, application rate 80 g/ha
Source text: as §1, §2

[29] = tested on: Brassica napus (BRSNW); test: D. Pre-emergence effect on useful plants, BRSNW; settings: useful plant
Source text: as §1, §2

[30] = tested on: Kochia scoparia (KCHSC); test: E. Herbicidal post-emergence efficacy, KCHSC
Experimental: as §4, §5, §6

[31] = tested on: Triticum aestivum (TRZAS); test: D. Pre-emergence effect on useful plants, TRZAS; settings: useful plant
Source text: as §1, §2

Cc1cccc(Oc2ncc(Cl)cn2)c1OS(=O)(=O)CCCCl [Example I-11]
Pre-emergence efficacy against ORYSA in % [1]: 20%
Pre-emergence efficacy against POLCO ([2]; 80 g/ha): 80%
Pre-emergence efficacy against POLCO ([2]; 320 g/ha): 80%
Post-emergence efficacy against ECHCG in % ([3]; application rate 80 g/ha): 90%
Post-emergence efficacy against ECHCG in % ([3]; application rate 320 g/ha): 90%
Post-emergence efficacy against SETVI in % [4]: 100%
Post-emergence efficacy against ABUTH in % ([5]; application rate 80 g/ha): 80%
Post-emergence efficacy against ABUTH in % ([5]; application rate 320 g/ha): 90%
Post-emergence efficacy against ALOMY in % [6]: 90%
Post-emergence efficacy against TRZAS in % [7]: 20%
Pre-emergence efficacy against MATIN [8]: 80%
Post-emergence efficacy against POLCO in % [9]: 100%
Post-emergence efficacy against VIOTR in % ([10]; application rate 80 g/ha): 90%
Post-emergence efficacy against VIOTR in % ([10]; application rate 320 g/ha): 100%
Pre-emergence efficacy against AMARE ([11]; 80 g/ha): 100%
Pre-emergence efficacy against AMARE ([11]; 320 g/ha): 100%
Pre-emergence efficacy against LOLRI [12]: 80%
Pre-emergence efficacy against ABUTH ([13]; 80 g/ha): 90%
Pre-emergence efficacy against ABUTH ([13]; 320 g/ha): 90%
Post-emergence efficacy against ZEAMX in % [14]: 20%
Pre-emergence efficacy against SETVI ([15]; 80 g/ha): 90%
Pre-emergence efficacy against SETVI ([15]; 320 g/ha): 100%
Pre-emergence efficacy against ECHCG ([16]; 80 g/ha): 90%
Pre-emergence efficacy against ECHCG ([16]; 320 g/ha): 100%
Post-emergence efficacy against AMARE in % ([17]; application rate 80 g/ha): 90%
Post-emergence efficacy against AMARE in % ([17]; application rate 320 g/ha): 100%
Post-emergence efficacy against VERPE in % ([18]; application rate 80 g/ha): 100%
Post-emergence efficacy against VERPE in % ([18]; application rate 320 g/ha): 100%
Pre-emergence efficacy against VERPE ([19]; 80 g/ha): 100%
Pre-emergence efficacy against VERPE ([19]; 320 g/ha): 100%
Pre-emergence efficacy against AVEFA [20]: 90%
Pre-emergence efficacy against ALOMY [21]: 90%
Post-emergence efficacy against LOLRI in % [22]: 90%
Pre-emergence efficacy against VIOTR in % ([23]; application rate 80 g/ha): 100%
Pre-emergence efficacy against VIOTR in % ([23]; application rate 320 g/ha): 100%
Pre-emergence efficacy against GLXMA in % ([24]; application rate 80 g/ha): 20%

O=S(=O)(CC=C(Cl)Cl)Oc1c(F)cccc1Oc1ncc(Cl)cn1 [Example I-85]
Post-emergence efficacy against ABUTH in % ([5]; application rate 320 g/ha): 80%
Post-emergence efficacy against TRZAS in % [7]: 0%
Pre-emergence efficacy against DIGSA [25]: 100%
Pre-emergence efficacy against MATIN [8]: 80%
Pre-emergence efficacy against KCHSC in % [26]: 100%
Pre-emergence efficacy against AMARE ([11]; 80 g/ha): 100%
Pre-emergence efficacy against AMARE ([11]; 320 g/ha): 100%
Post-emergence efficacy against PHBPU in % [27]: 90%
Pre-emergence efficacy against ZEAMX in % [28]: 0%
Pre-emergence efficacy against SETVI ([15]; 320 g/ha): 90%
Post-emergence efficacy against AMARE in % ([17]; application rate 80 g/ha): 90%
Post-emergence efficacy against AMARE in % ([17]; application rate 320 g/ha): 100%
Pre-emergence efficacy against BRSNW in % ([29]; application rate 80 g/ha): 0%
Pre-emergence efficacy against BRSNW in % ([29]; application rate 320 g/ha): 0%
Post-emergence efficacy against VERPE in % ([18]; application rate 80 g/ha): 100%
Post-emergence efficacy against VERPE in % ([18]; application rate 320 g/ha): 100%
Post-emergence efficacy against KCHSC in % ([30]; application rate 80 g/ha): 80%
Post-emergence efficacy against KCHSC in % ([30]; application rate 320 g/ha): 100%
Pre-emergence efficacy against TRZAS in % ([31]; application rate 80 g/ha): 0%
Pre-emergence efficacy against TRZAS in % ([31]; application rate 320 g/ha): 10%
Pre-emergence efficacy against VIOTR in % ([23]; application rate 320 g/ha): 80%
Pre-emergence efficacy against GLXMA in % ([24]; application rate 80 g/ha): 0%
Pre-emergence efficacy against GLXMA in % ([24]; application rate 320 g/ha): 0%
